Test results from patent US20080269251A1, “Substituted Pyrazinone Derivatives as Alpha2C-Adrenoreceptor Antagonists” (priority 2005, published 2008).

Experiments:
[1] = molecular target: T1, human adrenergic-α2A receptor (Homo sapiens, UniProt P08913); assay: Radioligand binding experiment for hα2A-adrenergic receptor ([3H]raulwolscine); conditions: [3H]raulwolscine 1 nM, 60 minutes at 25° C.; for IC50: read-out: h-α2A pIC50 (converted)
T1 construct: expressed in transfected cells; host or cells: CHO cells, stably transfected; membrane preparation
T1 sequence (P08913 1-465): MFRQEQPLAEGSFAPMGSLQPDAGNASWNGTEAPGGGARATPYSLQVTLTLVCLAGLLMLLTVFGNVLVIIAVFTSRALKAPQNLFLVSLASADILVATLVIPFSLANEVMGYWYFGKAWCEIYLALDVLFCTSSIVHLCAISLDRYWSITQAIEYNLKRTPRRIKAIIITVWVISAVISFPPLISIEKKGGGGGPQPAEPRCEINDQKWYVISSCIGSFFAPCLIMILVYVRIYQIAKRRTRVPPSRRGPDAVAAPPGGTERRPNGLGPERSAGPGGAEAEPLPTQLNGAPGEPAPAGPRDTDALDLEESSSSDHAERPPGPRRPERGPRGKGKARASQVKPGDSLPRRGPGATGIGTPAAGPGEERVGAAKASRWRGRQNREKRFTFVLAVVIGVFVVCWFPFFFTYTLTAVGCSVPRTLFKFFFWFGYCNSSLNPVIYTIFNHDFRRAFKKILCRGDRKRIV
Description: (§1) The interaction of the compounds of Formula (I) with α2C-adrenoceptor receptors was assessed in in vitro radioligand binding experiments. In general, a low concentration of a radioligand with a high binding affinity for a particular receptor or transporter is incubated with a sample of a tissue preparation enriched in a particular receptor or transporter or with a preparation of cells expressing cloned human receptors in a buffered medium. During the incubation, the radioligand binds to the receptor or transporter. When equilibrium of binding is reached, the receptor bound radioactivity is separated from the non-bound radioactivity, and the receptor- or transporter-bound activity is counted. The interaction of the test compounds with the receptor is assessed in competition binding experiments. Various concentrations of the test compound are added to the incubation mixture containing the receptor- or transporter preparation and the radioligand. The test compound in proportion to its binding affinity and its concentration inhibits binding of the radioligand. The radioligand used for […] receptor binding was [^3H]-raulwolscine.
(§2) CHO cells, stabile transfected with human adrenergic-α2A, -α2B or α2C receptor cDNA, were cultured in Dulbecco's Modified Eagle's Medium (DMEM)/Nutrient mixture Ham's F12 (ratio 1:1)(Gibco, Gent-Belgium) supplemented with 10% heat inactivated fetal calf serum (Life Technologies, Merelbeke-Belgium) and antibiotics (100 IU/ml penicillin G, 100 μg/ml streptomycin sulphate, 110 μg/ml pyruvic acid and 100 μg/ml L-glutamine). One day before collection, cells were induced with 5 mM sodiumbutyrate. Upon 80-90% of confluence, cells were scraped in phosphate buffered saline without Ca^2+ and Mg^2+ and collected by centrifugation at 1500×g for 10 minutes. The cells were homogenised in Tris-HCl 50 mM using an Ultraturrax homogenizer and centrifuged for 10 minutes at 23,500×g. The pellet was washed once by resuspension and rehomogenization and the final pellet was resuspended in Tris-HCl, divided in 1 ml aliquots and stored at −70° C.
(§3) Membranes were thawed and re-homogenized in incubation buffer (glycylglycine 25 mM, pH 8.0). In a total volume of 500 μl, 2-10 μg protein was incubated with [^3H]raulwolscine (NET-722) (New England Nuclear, USA) (1 nM final concentration) with or without competitor for 60 minutes at 25° C. followed by rapid filtration over GF/B filter using a Filtermate196 harvester (Packard, Meriden, Conn.). Filters were rinsed extensively with ice-cold rinsing buffer (Tris-HCl 50 mM pH 7.4). Filter-bound radioactivity was determined by scintillation counting in a Topcount (Packard, Meriden, Conn.) and results were expressed as counts per minute (cpm). Non-specific binding was determined in the presence of 1 μM oxymetazoline for hα2A- and hα2B receptors and 1 μM spiroxatrine for hα2C receptors.
(§4) Data from assays in the presence of compound were calculated as a percentage of total binding measured in the absence of test compound. Inhibition curves, plotting percent of total binding versus the log value of the concentration of the test compound, were automatically generated, and sigmoidal inhibition curves were fitted using non-linear regression. The pIC50 values of test compounds were derived from individual curves.

[2] = molecular target: T2, human adrenergic-α2C receptor (Homo sapiens, UniProt P18825); assay: Radioligand binding experiment for hα2C-adrenoceptor ([3H]raulwolscine); conditions: [3H]raulwolscine 1 nM, 60 minutes at 25° C.; for IC50: read-out: h-α2C pIC50 (converted)
T2 construct: expressed in transfected cells; host or cells: CHO cells, stably transfected; membrane preparation
T2 sequence (P18825 1-462): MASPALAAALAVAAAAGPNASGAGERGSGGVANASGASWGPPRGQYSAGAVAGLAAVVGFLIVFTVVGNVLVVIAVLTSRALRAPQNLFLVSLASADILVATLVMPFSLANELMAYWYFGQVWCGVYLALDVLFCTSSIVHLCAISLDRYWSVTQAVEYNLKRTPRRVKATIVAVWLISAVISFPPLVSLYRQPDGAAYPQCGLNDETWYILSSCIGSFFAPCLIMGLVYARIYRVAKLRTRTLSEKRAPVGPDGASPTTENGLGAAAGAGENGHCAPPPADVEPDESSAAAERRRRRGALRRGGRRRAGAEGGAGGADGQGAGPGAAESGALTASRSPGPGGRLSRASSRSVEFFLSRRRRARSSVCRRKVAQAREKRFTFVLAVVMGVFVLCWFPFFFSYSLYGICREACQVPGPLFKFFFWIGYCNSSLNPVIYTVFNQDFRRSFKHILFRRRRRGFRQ
Description: as §1, §2, §3, §4

5HT-transporter = molecular target: T3, 5HT-transporter (Homo sapiens, UniProt P31645); assay: Binding experiment for the 5HT-transporter ([3H]paroxetine, human platelet membranes); conditions: [3H]paroxetine 0.5 nM, 60 min at 25° C.; for IC50: read-out: h-5HTT pIC50 (converted)
T3 construct: Human platelet membranes (Oceanix Biosciences Corporation, Hanover, Md., USA) were thawed; tissue Oceanix Biosciences Corporation, Hanover, Md., USA; host or cells: human platelet membranes
T3 sequence (P31645 whole entry): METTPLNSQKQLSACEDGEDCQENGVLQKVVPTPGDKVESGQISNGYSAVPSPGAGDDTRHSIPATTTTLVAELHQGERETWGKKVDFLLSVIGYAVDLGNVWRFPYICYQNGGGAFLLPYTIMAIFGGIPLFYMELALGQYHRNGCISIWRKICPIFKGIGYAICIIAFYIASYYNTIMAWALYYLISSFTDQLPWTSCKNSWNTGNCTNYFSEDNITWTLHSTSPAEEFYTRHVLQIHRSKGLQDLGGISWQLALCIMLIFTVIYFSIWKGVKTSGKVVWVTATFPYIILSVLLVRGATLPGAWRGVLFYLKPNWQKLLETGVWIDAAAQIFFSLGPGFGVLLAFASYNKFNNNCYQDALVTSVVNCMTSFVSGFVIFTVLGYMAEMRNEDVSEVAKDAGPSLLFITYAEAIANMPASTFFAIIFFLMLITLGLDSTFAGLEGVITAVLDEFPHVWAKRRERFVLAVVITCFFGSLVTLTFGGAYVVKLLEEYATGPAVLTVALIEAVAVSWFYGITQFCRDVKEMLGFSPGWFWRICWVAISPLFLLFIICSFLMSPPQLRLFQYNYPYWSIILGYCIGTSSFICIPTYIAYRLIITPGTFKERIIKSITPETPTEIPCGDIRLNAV
Description: as §1
Human platelet membranes (Oceanix Biosciences Corporation, Hanover, Md., USA) were thawed, diluted in buffer (Tris-HCl 50 mM, 120 mM NaCl and 5 mM KCl) and quickly (max 3 s) homogenised with an Ultraturrax homogenizer. […] Incubation was stopped by rapid filtration of the incubation mixture over GF/B filters, pre-wetted with 0.1% polyethyleneamine, using a Filtermate196 harvester (Packard, Meriden, Conn.). Filters were rinsed extensively with ice-cold buffer and radioactivity on the filters was counted in a Topcount liquid scintillation counter (Packard, Meriden, Conn.). Data were expressed as cpm. Imipramine (at 1 μM final concentration) was used to determine the non-specific binding.
as §4

O=C(NCc1ccc(-n2ccnc(NC3CCN(Cc4ccc5ccccc5c4)CC3)c2=O)cc1)C1CCCO1 (racemic) [1-99]
h-α2A pIC50 [1]: 6.2 | h-α2C pIC50 [2]: 8.1 | h-5HTT pIC50 (5HT-transporter): 7.7

NCc1ccc(-n2ccnc(NC3CCN(Cc4ccc5ccccc5c4)CC3)c2=O)cc1 [1-01]
IC50 [1]: 200 nM | IC50 [2]: 20 nM | IC50 (5HT-transporter): 20 nM

NCc1ccc(Cn2ccnc(NC3CCN(Cc4ccc5ccccc5c4)CC3)c2=O)cc1 [1-02]
IC50 [1]: 50.1 nM | IC50 [2]: 12.6 nM | IC50 (5HT-transporter): 63.1 nM

NCCCn1ccnc(NC2CCN(Cc3ccc4ccccc4c3)CC2)c1=O [1-03]
IC50 [1]: 200 nM | IC50 [2]: 50.1 nM | IC50 (5HT-transporter): 200 nM

CNCCCn1ccnc(NC2CCN(Cc3ccc4ccccc4c3)CC2)c1=O [1-04]
IC50 [1]: 251 nM | IC50 [2]: 25.1 nM | IC50 (5HT-transporter): 251 nM

CCCNCc1ccc(-n2ccnc(NC3CCN(Cc4ccc5ccccc5c4)CC3)c2=O)cc1 [1-06]
IC50 [1]: 251 nM | IC50 [2]: 10 nM | IC50 (5HT-transporter): 20 nM

O=c1c(NC2CCN(Cc3ccc4ccccc4c3)CC2)nccn1-c1ccc(CNCCF)cc1 [1-07]
IC50 [1]: 126 nM | IC50 [2]: 6.31 nM | IC50 (5HT-transporter): 7.94 nM

O=c1c(NC2CCN(Cc3ccc4ccccc4c3)CC2)nccn1-c1ccc(CNCCF)c(F)c1 [1-08]
IC50 [1]: 126 nM | IC50 [2]: 7.94 nM | IC50 (5HT-transporter): 10 nM

CCNC(=O)Cc1ccc(-n2ccnc(NC3CCN(Cc4ccc5ccccc5c4)CC3)c2=O)cc1 [1-10]
IC50 [1]: 398 nM | IC50 [2]: 31.6 nM | IC50 (5HT-transporter): 15.8 nM

CCCNC(=O)Cc1ccc(-n2ccnc(NC3CCN(Cc4ccc5ccccc5c4)CC3)c2=O)cc1 [1-11]
IC50 [1]: 501 nM | IC50 [2]: 20 nM | IC50 (5HT-transporter): 20 nM

CN(C)CCCn1ccnc(NC2CCN(Cc3ccc4ccccc4c3)CC2)c1=O [1-12]
IC50 [1]: 200 nM | IC50 [2]: 31.6 nM | IC50 (5HT-transporter): 251 nM

CCCN(C)C(=O)Cn1ccnc(NC2CCN(Cc3ccc4ccccc4c3)CC2)c1=O [1-13]
IC50 [1]: 501 nM | IC50 [2]: 63.1 nM | IC50 (5HT-transporter): 2000 nM

CN(CCF)Cc1ccc(-n2ccnc(NC3CCN(Cc4ccc5ccccc5c4)CC3)c2=O)cc1 [1-14]
h-α2A pIC50 [1]: 6.9 | h-α2C pIC50 [2]: 8.1 | h-5HTT pIC50 (5HT-transporter): 7.8

CN(C)C(=O)Cn1ccnc(NC2CCN(Cc3ccc4ccccc4c3)CC2)c1=O [1-15]
IC50 [1]: 398 nM | IC50 [2]: 126 nM | IC50 (5HT-transporter): 3160 nM

CN(C(=O)Cn1ccnc(NC2CCN(Cc3ccc4ccccc4c3)CC2)c1=O)C1CCCCC1 [1-16]
IC50 [1]: 316 nM | IC50 [2]: 25.1 nM | IC50 (5HT-transporter): 251 nM

CCCCN(Cc1ccccc1)C(=O)Cn1ccnc(NC2CCN(Cc3ccc4ccccc4c3)CC2)c1=O [1-18]
IC50 [1]: 200 nM | IC50 [2]: 39.8 nM | IC50 (5HT-transporter): 79.4 nM

O=C(Cn1ccnc(NC2CCN(Cc3ccc4ccccc4c3)CC2)c1=O)NCC(c1ccccc1)c1ccccc1 [1-19]
IC50 [1]: 398 nM | IC50 [2]: 63.1 nM | IC50 (5HT-transporter): 79.4 nM

CCOC(CN(Cc1ccccc1)C(=O)Cn1ccnc(NC2CCN(Cc3ccc4ccccc4c3)CC2)c1=O)OCC [1-20]
IC50 [1]: 398 nM | IC50 [2]: 25.1 nM | IC50 (5HT-transporter): 100 nM

COCCN(C)Cc1ccc(-n2ccnc(NC3CCN(Cc4ccc5ccccc5c4)CC3)c2=O)cc1 [1-21]
IC50 [1]: 251 nM | IC50 [2]: 15.8 nM | IC50 (5HT-transporter): 15.8 nM

COCCNCc1ccc(-n2ccnc(NC3CCN(Cc4ccc5ccccc5c4)CC3)c2=O)cc1 [1-22]
IC50 [1]: 200 nM | IC50 [2]: 15.8 nM | IC50 (5HT-transporter): 15.8 nM

CCCC(=O)Nc1cccc(-n2ccnc(NC3CCN(Cc4ccc5ccccc5c4)CC3)c2=O)c1 [1-23]
IC50 [1]: 39.8 nM | IC50 [2]: 10 nM | IC50 (5HT-transporter): 6.31 nM

CCCC(=O)NCc1ccc(-n2ccnc(NC3CCN(Cc4ccc5ccccc5c4)CC3)c2=O)cc1 [1-24]
IC50 [1]: 316 nM | IC50 [2]: 25.1 nM | IC50 (5HT-transporter): 6.31 nM

CCCC(=O)NCc1ccc(-n2ccnc(NC3CCN(Cc4ccc5ccccc5c4)CC3)c2=O)cc1OC [1-25]
IC50 [1]: 631 nM | IC50 [2]: 39.8 nM | IC50 (5HT-transporter): 12.6 nM

CC(CC(=O)NCc1ccc(-n2ccnc(NC3CCN(Cc4ccc5ccccc5c4)CC3)c2=O)cc1)CC(C)(C)C (stereo not shown) [1-27]
IC50 [1]: 631 nM | IC50 [2]: 63.1 nM | IC50 (5HT-transporter): 20 nM

O=C(CC1CCCC1)NCc1ccc(-n2ccnc(NC3CCN(Cc4ccc5ccccc5c4)CC3)c2=O)cc1 [1-28]
h-α2A pIC50 [1]: 6.3 | h-α2C pIC50 [2]: 7.5 | h-5HTT pIC50 (5HT-transporter): 8.1

CCCC(=O)N(Cc1ccc(-n2ccnc(NC3CCN(Cc4ccc5ccccc5c4)CC3)c2=O)cc1)C(=O)CCC [1-29]
IC50 [1]: 398 nM | IC50 [2]: 39.8 nM | IC50 (5HT-transporter): 20 nM

COCCC(=O)NCc1ccc(-n2ccnc(NC3CCN(Cc4ccc5ccccc5c4)CC3)c2=O)cc1 [1-30]
IC50 [1]: 316 nM | IC50 [2]: 31.6 nM | IC50 (5HT-transporter): 15.8 nM

C=CCCC(=O)NCc1ccc(-n2ccnc(NC3CCN(Cc4ccc5ccccc5c4)CC3)c2=O)cc1 [1-31]
h-α2A pIC50 [1]: 6.5 | h-α2C pIC50 [2]: 7.5 | h-5HTT pIC50 (5HT-transporter): 8.1

CC(C)(C)OC(=O)NCCCn1ccnc(NC2CCN(Cc3ccc4ccccc4c3)CC2)c1=O [1-32]
IC50 [1]: 200 nM | IC50 [2]: 12.6 nM | IC50 (5HT-transporter): 31.6 nM

CC(C)(C)OC(=O)NCc1ccc(-n2ccnc(NC3CCN(Cc4ccc5ccccc5c4)CC3)c2=O)cc1 [1-33]
IC50 [1]: 501 nM | IC50 [2]: 79.4 nM | IC50 (5HT-transporter): 25.1 nM

O=c1c(NC2CCN(Cc3ccc4ccccc4c3)CC2)nccn1-c1ccc(CNCC2CCCO2)cc1 (stereo not shown) [1-79b]
IC50 [2]: 6.31 nM | IC50 (5HT-transporter): 2.51 nM

O=C1c2ccccc2C(=O)N1CC#CCn1ccnc(NC2CCN(Cc3ccc4ncccc4c3)CC2)c1=O [9-11]
IC50 [2]: 12.6 nM

O=C1c2ccccc2C(=O)N1CC#CCn1ccnc(NC2CCN(Cc3ccc4ncccc4c3)CC2)c1=O [9-30]
IC50 [2]: 31.6 nM
